Measured values: patent US20230286973A1, “PROTEIN SECRETION INHIBITORS” (KEZAR LIFE SCIENCES, priority 2020, published 2023)

Legend:
[1] = system: TNFα-FL/Gaussia Luciferase; test: Dox Induced TNFα-FL-Gluc Assay; format: cell-based; details: for IC50: 24 hr Dox induction, 293FRT/TO cells, read-out: 24 hr Dox Inducible TNFaFLGluc 293FRT/TO: Mean IC50; for 24 hr Dox Inducible TNFaFLGluc 293FRT/TO: TNF/PD1: ratio of TNFaFLGluc IC50 to PD1ssGluc IC50
In short: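 Flp-In 293 T-REx cells stably carrying doxycycline-inducible full-length TNFα (aa 1-233) fused to Gaussia luciferase. Plated the day before, then treated with compound dilutions in doxycycline-containing medium at 37° C, 5% CO2.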

[2] = Liver Microsome Stability Assay (mouse); details: mouse liver microsomes, with NADPH, 1.0 uM compound
Procedure: (§1) Stability of a compound was assessed in the presence of liver microsomes from various sources—mouse, rat, monkey and human liver microsomes. 1.0 uM compound, 0.4% DMSO in 0.1 M Potassium Phosphate with 1.0 mg/mL liver microsomes, were incubated at 37° C. with or without 1 mM NADPH. The samples were quenched at 0, and 30 minutes.

[3] = system: PD1-ss+10aa/Gaussia Luciferase; test: Dox-Induced PD1-ss-Gluc Assay; format: cell-based; details: 24 hr Dox induction; 293FRT/TO cells; read-out: 24 hr Dox Inducible PD1ssGluc 293FRT/TO: Mean IC50
In short: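 Compounds were added in DMSO/media with doxycycline and incubated at 37 °C, 5% CO2, on 293 T-REx cells plated one day earlier. These cells stably express, under tetracycline-regulated control, a Gaussia luciferase fused to the PD1 signal peptide plus 10 residues. Structures drawn without stereochemistry were tested as stereoisomer mixtures.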

[4] = system: multiple myeloma cell line NCI-H929; test: H929 Cell Viability Assay; format: cell-based, human; details: Homo sapiens, NCI-H929, 48 h, NCI-H929 cells, Celltiter-Glo
In short: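 NCI-H929 cells in RPMI 1640 with 10% FBS were treated with compound dilutions for 48 h at 37° C, 5% CO2. Viability was read by CellTiter-Glo luminescence. Undefined stereocentres denote stereoisomer mixtures.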

[5] = Liver Microsome Stability Assay (monkey); details: monkey liver microsomes, with NADPH, 1.0 uM compound
Procedure: as §1

[6] = system: IL-2-FL/Gaussia Luciferase; test: Dox Induced IL2-FL-Gluc Assay; format: cell-based; details: for IC50: 24 hr Dox induction, 293FRT/TO cells, read-out: 24 hr Dox Inducible IL2FLGluc 293FRT/TO: Mean IC50; for 24 hr Dox Inducible IL2FLGluc 293FRT/TO: IL2/PD1: ratio of IL2FLGluc IC50 to PD1ssGluc IC50
In short: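 Stable Flp-In 293 T-REx cells carrying doxycycline-inducible full-length IL-2 (aa 1-153) fused to Gaussia luciferase, plated the day before assay. Compound dilutions added in medium containing doxycycline, incubated at 37 °C, 5% CO2. Undefined stereocentres mean data refer to stereoisomer mixtures.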

[7] = system: HER3-ss+4aa/Gaussia Luciferase; test: Dox-Induced Her3-ss-Gluc Assay; format: cell-based; details: 24 hr Dox induction; 293FRT/TO cells; read-out: 24 hr Dox Inducible Her3(ss + 4)Gluc 293FRT/TO: Mean IC50
In short: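 Stable Flp-In 293 T-REx cells carried a doxycycline-inducible HER3 signal sequence (+4 aa) fused to Gaussia luciferase. Cells were plated the day before the assay. Compound dilutions in DMSO/media containing doxycycline were then added, and plates were incubated at 37 °C, 5% CO2.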

[8] = Liver Microsome Stability Assay (rat); details: rat liver microsomes, with NADPH, 1.0 uM compound
Procedure: as §1

[9] = system: multiple myeloma cell line U266B1; test: U266 Cell Viability Assay; format: cell-based, human; details: Homo sapiens, U-266, 48 h, U266B1 cells, Celltiter-Glo
In short: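 U266B1 multiple myeloma cells in RPMI 1640/10% FBS were treated with compound dilutions for 48 h at 37 °C, 5% CO2. Viability was measured by CellTiter-Glo luminescence; compounds drawn without stereochemistry were tested as stereoisomer mixtures.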

[10] = Liver Microsome Stability Assay (human); details: human liver microsomes, with NADPH, 1.0 uM compound
Procedure: as §1

| Compound | IC50 [1] [µM] | 24 hr Dox Inducible TNFaFLGluc 293FRT/TO: TNF/PD1 [1] | Liver Microsome Stability (Multiple Species): Mouse - % Remaining after 30 min w/NADPH [2] [%] | IC50 [3] [nM] | EC50 [4] [µM] | Liver Microsome Stability (Multiple Species): Monkey - % Remaining after 30 min w/NADPH [5] [%] | IC50 [6] [µM] | 24 hr Dox Inducible IL2FLGluc 293FRT/TO: IL2/PD1 [6] | IC50 [7] [µM] | Liver Microsome Stability (Multiple Species): Rat - % Remaining after 30 min w/NADPH [8] [%] | EC50 [9] [µM] | Liver Microsome Stability (Multiple Species): Human - % Remaining after 30 min w/NADPH [10] [%] |
| --- | --- | --- | --- | --- | --- | --- | --- | --- | --- | --- | --- | --- |
| O=C(Nc1nc(/C=C/c2cccc(=O)[nH]2)cs1)c1cccn1Cc1ccnc(F)c1 [Compound B61] | > 25 | <=>1.00 | 9.41 | > 25000 | > 25 | 0.5 | > 25 | <=>1.0 | > 25 | 12.3 | > 25 | 0.96 |
| O=C(Nc1nc(/C=C/c2cn3c(n2)CCC3)cs1)c1cccn1Cc1ccnc(F)c1 [Compound B62, (E)-N-(4-(2-(6,7-dihydro-5H-pyrrolo[1,2-a]imidazol-2-yl)vinyl)thiazol-2-yl)-1-((2-fluoropyridin-4-yl)methyl)-1H-pyrrole-2-carboxamide] | > 25 | >77.9 | 11.5 | 321 | > 24.3 | 2.64 | > 25 | >78 | > 25 | 2.51 | > 25 | 0.2 |
| CC(C)n1cnc(/C=C/c2csc(NC(=O)c3cccn3Cc3cccnc3)n2)c1 [Compound B63, (E)-N-(4-(2-(1-isopropyl-1H-imidazol-4-yl)vinyl)thiazol-2-yl)-1-(pyridin-3-ylmethyl)-1H-pyrrole-2-carboxamide] | > 25 | <=>1.20 | 0.49 | > 20900 | > 25 | 0.09 | > 25 | <=>1.2 | > 25 | 1.14 | > 25 | 6.56 |
| CC(C)c1ccc(/C=C/c2csc(NC(=O)c3cccn3Cc3ccnc(F)c3)n2)nc1 [Compound B64, (E)-1-((2-fluoropyridin-4-yl)methyl)-N-(4-(2-(5-isopropylpyridin-2-yl)vinyl)thiazol-2-yl)-1H-pyrrole-2-carboxamide] | 18.4 | 894 | 0.29 | 20.6 | 15.7 | 0.12 | 1.72 | 84 | 0.784 | 0.46 | > 22.2 | 0.37 |
| CCn1cnc(/C=C/c2csc(NC(=O)c3cccn3Cc3ccnc(F)c3)n2)c1 [Compound B65, (E)-N-(4-(2-(1-ethyl-1H-imidazol-4-yl)vinyl)thiazol-2-yl)-1-((2-fluoropyridin-4-yl)methyl)-1H-pyrrole-2-carboxamide] | > 25 | >208 | 7.82 | 120 | 24.5 | 0.08 | > 25 | >210 | > 25 | 4.75 | > 25 | 0.18 |
| CC(C)c1ccc(/C=C/c2csc(NC(=O)c3cccn3Cc3cccnc3)n2)nc1 [Compound B66, (E)-N-(4-(2-(5-isopropylpyridin-2-yl)vinyl)thiazol-2-yl)-1-(pyridin-3-ylmethyl)-1H-pyrrole-2-carboxamide] | > 25 | >1.61 | 0.11 | 15500 | 13.4 | 0.35 | > 25 | >1.6 | > 25 | 0.18 | > 25 | 0.09 |
| CC(C)c1nc(/C=C/c2csc(NC(=O)c3cccn3Cc3ccnc(F)c3)n2)cn1C [Compound B67, (E)-1-((2-fluoropyridin-4-yl)methyl)-N-(4-(2-(2-isopropyl-1-methyl-1H-imidazol-4-yl)vinyl)thiazol-2-yl)-1H-pyrrole-2-carboxamide] | > 25 | >4.66 | 2.2 | 5370 | 21 | 0.13 | 19.1 | 3.6 | 18.5 | 1.32 | 19.7 | 0.16 |
| CC(C)n1cnc(/C=C/c2csc(NC(=O)c3cccn3Cc3cc(F)nc(F)c3)n2)c1 [Compound B68, (E)-1-((2,6-difluoropyridin-4-yl)methyl)-N-(4-(2-(1-isopropyl-1H-imidazol-4-yl)vinyl)thiazol-2-yl)-1H-pyrrole-2-carboxamide] | > 25 | >71.9 | 14 | 348 | 10.1 | 0.07 | > 25 | >72 | 18.2 | 19.9 | 14.6 | 0.5 |
